According to US11603378B2, “Azole silane compound” (Atotech Deutschland GmbH, priority 2018, dated 2023):

Tests used:
Format in all cases: physicochemical
[1] = Solubility test: time until 50 g/L of compound is fully dissolved in glycol ether solvent; details: approx. 22° C., constant stirring, test carried out for 30 minutes; for t [min] DEGBE (time until fully dissolved): 50 g/L in diethylene glycol monobutyl ether; for t [min] EGBE (time until fully dissolved): 50 g/L in ethylene glycol monobutyl ether
Method: In a solubility test, solubility in diethylene glycol monobutyl ether (DEGBE) and ethylene glycol monobutyl ether (EGBE) as solvents was tested at approximately 22° C. under constant stirring. For that, the azole silane compound of Formula (Ia), obtained in Example A), 1), and the reference compound of formula (X) were dissolved in respective samples (mixtures).
In each solubility test the time “t” was determined until an amount of the respective compound in its highly viscous state, corresponding in each case to a concentration of 50 g/L of the azole silane compound (approximately corresponding to 5 wt.-%, based on the total weight of a respective test composition), was fully dissolved in the respective solvent. Each solubility test was carried out for 30 minutes.

[2] = Stability test of alkaline storage solution (precipitation in dependence of pH); set-up: key to precipitation, storage solution: xx = strong precipitation; x = little, insignificant precipitation; 0 = no precipitation; details: for precipitation, storage solution: 50° C., 4 wt.-% in 20 wt.-% water / 76 wt.-% DEGBE
Method: C-2i) Alkaline Storage Solution: In a first stability test, stability of a compound of formula (Ib) obtained in Example A), 3) was further investigated in dependence of the pH. For that purpose, various storage solutions (according to the present invention and not according to the present invention) have been prepared each comprising 200 mL/L water (corresponding to approximately 20 wt.-%), 800 mL/L DEGBE (corresponding to approximately 76 wt.-%), and a compound of formula (Ib) in a total amount of 4 wt.-%, based on the total weight of the respective storage solution. The various pH values were obtained by adding sodium hydroxide or sulfuric acid. The stability was evaluated after 1, 7, and 15 days by carefully determining the presence of any precipitates. During the stability tests, the temperature of each storage solution was 50° C.

[3] = Stability test of aqueous working solution (precipitation at various pH); set-up: key: xx = strong precipitation; x = little, insignificant precipitation; 0 = no precipitation; details: 50° C., approx. 1 wt.-%, 250 mL/L storage solution pH 11 + 750 mL/L water
Method: C-2ii) Aqueous Working Solution:
In a second stability test, stability of a compound of formula (Ib) also obtained in Example A), 3) was investigated at various pH values but with lower concentration compared to C-2i.
For that purpose, various working solutions (according to the present invention and not according to the present invention) have been prepared each comprising 250 mL/L of storage solution with pH 11 as described above under item C-2i and 750 mL/L water such that the compound of formula (Ib) was present in an total amount of approximately 1 wt.-%, based on the total weight of the respective working solution. The various pH values were obtained by adding sulfuric acid. The stability was evaluated after 14 days by carefully determining the presence of precipitates. During the stability tests, the temperature of each storage solution was kept constant at 50° C.

## CO[Si](CCCOCC(O)CSc1nnc(N)s1)(OC)OC (stereo not shown) [formula (Ia)]
[1]
  t [min] DEGBE (time until fully dissolved): 12 min
  t [min] EGBE (time until fully dissolved): 10 min

## CO[Si](CCCOCC(O)CSc1nnc(N)[nH]1)(OC)OC (stereo not shown) [formula (Ib)]
[2]; comparatively high pH, concentrations of approximately 4 wt.-%
  stability in DEGBE storage solution (in words): stable
[2]; pH 4, 1 d
  precipitation, storage solution: xx
[2]; pH 4, 7 d
  precipitation, storage solution: xx
[2]; pH 4, 15 d
  precipitation, storage solution: xx
[2]; pH 7, 1 d
  precipitation, storage solution: xx
[2]; pH 7, 7 d
  precipitation, storage solution: xx
[2]; pH 7, 15 d
  precipitation, storage solution: xx
[2]; pH 10, 1 d
  precipitation, storage solution: x
[2]; pH 10, 7 d
  precipitation, storage solution: x
[2]; pH 10, 15 d
  precipitation, storage solution: x
[2]; pH 11, 1 d
  precipitation, storage solution: 0
[2]; pH 11, 7 d
  precipitation, storage solution: 0
[2]; pH 11, 15 d
  precipitation, storage solution: 0
[2]; pH 12, 1 d
  precipitation, storage solution: 0
[2]; pH 12, 7 d
  precipitation, storage solution: 0
[2]; pH 12, 15 d
  precipitation, storage solution: 0
[3]; pH 4, after 14 days
  precipitation, working solution: xx
[3]; pH 6, after 14 days
  precipitation, working solution: 0
[3]; pH 7, after 14 days
  precipitation, working solution: 0
[3]; pH 8, after 14 days
  precipitation, working solution: x
[3]; pH 10, after 14 days
  precipitation, working solution: xx

## CO[Si](CCCSc1nnc(N)[nH]1)(OC)OC [formula (X), reference compound]
[1]
  t [min] DEGBE (time until fully dissolved): 25 min
  t [min] EGBE (time until fully dissolved): > 30 min
